Laboratory results from patent US7888120B2, “Global regulator of morphogenesis and pathogenicity in dimorphic fungi and uses thereof” (Wisconsin Alumni Research Foundation, priority 2006, dated 2011).

System: B. dermatitidis mutant 4-2-2
Format: cell-based, Blastomyces dermatitidis

Nc1c(/N=N/c2ccc(-c3ccc(/N=N/c4cc(S(=O)(=O)O)c5ccccc5c4N)cc3)cc2)cc(S(=O)(=O)O)c2ccccc12 [Congo red]
Sensitivity of mutant versus parent strain T53-19: more sensitive than the parent strain

O=S(=O)([O-])c1cc(Nc2nc(Nc3ccccc3)nc(N(CCO)CCO)n2)ccc1/C=C/c1ccc(Nc2nc(Nc3ccccc3)nc(N(CCO)CCO)n2)cc1S(=O)(=O)[O-].[Na+].[Na+] [calcofluor]
Sensitivity of mutant versus parent strain T53-19: more sensitive than the parent strain
